Paper PMC7822816, “Halo-fluorescein for photodynamic bacteria inactivation in extremely acidic conditions” (Nature Communications, 2021)
Several values for one entry are separate records, joined by “and”; a condition that tells them apart may be missing. Equal values may be shown once.

Columns and labels:
C. albicans = test: Fresh food preservation (infected tomato model); parameters: species or system Candida albicans; details: 10 μM in pH 3.0 PBS, LED 35 mW/cm^2 10 min (620 nm Zn-tpp, 660 nm Ce 6)
From the text: Besides fruit juices, the potential of TIF for photo-assisted fresh food preservation was also investigated with tomato as the model (pH 3.0). […] Therefore, the food additive TIF is also promising for fresh food preservation.
Tomatoes were selected as the model for photo-assisted fresh food preservation. All the tomatoes were divided into six groups, and made a wound of ~7 cm^2 by hot water. […] Afterward, the tomatoes were stored at room temperature and then subjected to repeated irradiation at day 2. The total viable counts of bacteria on the infected tomatoes were measured in day 3.

[1] = tested on: C. albicans infection of oral mucosa; details: photosensitizer + light (510 nm TIF, 660 nm Ce 6 and Zn-tpp)
From the text: The extremely acidic environment was constructed through changing the pH of the mucosa and diluting PSs in pH 3.0 PBS buffer. […] During the investigations, the infected ICR mice were divided into six groups (six mice per group): blank, light, TIF, TIF + light, Ce 6 + light, and Zn-tpp + light. For comparison and better visualization of the infection, a normal group (no infection) was also included.
To construct the oral mucosal infection model, cotton balls immersed in solutions containing 10^8 CFU/mL of C. albicans were placed in the mouth of mice for 75 min. At day 1 and day 3, 50 μL pH 3.0 PBS and PSs (20 μM, diluted by pH 3.0 PBS) were added to oral mucosa, and treated with different lasers (510 nm for TIF, 660 nm for Ce 6 and Zn-tpp, 50 mW/cm^2) for 10 min.
To investigate the therapy effect, photographs, colonies, weights, and pathology index of mice were taken every other day. After day 3, one mouse in each group was sacrificed, and the tissues of oral mucosa were harvested for hematoxylin and eosin (H&E) staining. The pathology index was evaluated based on the standard given in Supplementary Table 10.

[2] = Relative singlet oxygen quantum yield (1O2 phosphorescence, Rose Bengal standard); type: physicochemical; parameters: key: relative to Rose Bengal standard (ΦΔ = 0.75); details: for Singlet oxygen yield (ΦΔ): mixed solvent of D2O and CH3CN (1:15) (Supplementary Table 4); for singlet oxygen quantum yield (ΦΔ): pH = 10 media, relative, RB as the standard
Experimental: To permit the open-form structure of all fluorescein derivatives, all the measurements were carried out in pH = 10 media.
The singlet oxygen quantum yields (ΦΔ) of all fluorescein-based PSs were evaluated with Rose Bengal as the standard (ΦΔ = 0.75):1 ΦΔ=AsAbsorption/As(Emission)×ARB(Emission)/ARB(Absorption)×0.75 Here, the area of absorption (RB and PSs) was collected with an integrating sphere (λex = 510 nm), while the area of emission was obtained from the characterized 1270 nm ^1O2 phosphorescence emission. For collection of such emission, CH3CN and D2O mixed solvent (v (D2O): v (CH3CN) = 1:15, pH = 9.0, adjusted with 0.001 M NaOH) was used, since H2O can severely quench the singlet oxygen luminescence. For all the measurements, the concentrations of the PSs were set at 10 μM.
S6.3 Relative singlet oxygen quantum yield
The singlet O2 quantum yield of photosensitizers were measured by Fluolog-3 spectrofluorometer with an integration sphere (IS80, Labsphere) and NIR detector (Hamamatsu H-10330) in this work.
For better collection of the characterized singlet oxygen phosphorescence emission (1275 nm), CH3CN and D2O mixed solvent was used (H2O can severely quench the singlet oxygen luminescence). The 10 mM stock solutions in CH3CN and D2O mixed solvent (VCH3CN:VD2O = 15:1) were first prepared. The stock solutions were diluted to 10 μM, and the final volume was 2 mL. In addition, the CH3CN and D2O mixed solvent as blank was also prepared.
1. Turn on the instrument and the start software, the light source is xenon lamp.
2. From the experiment menu, selected spectra, emission. The 1O2 emission phosphorescence spectra are first measured.
3. The parameters setting are listed: a. Excitation wavelength: 510 nm

[3] = pH titration of halogenated fluorescein (pH0.5); type: physicochemical; details: for lowering of pH0.5 compared with fluorescein: difference to fluorescein (6.09)
Experimental: The pH0.5 values (the pH value when the open form reduce to the half of the maximum) of various fluorescein derivatives were determined experimentally through pH titration (Supplementary Figs. 6–16).
The pH of the solutions were adjusted through varying the ratios of citric acid and Na2HPO4 (pH 2.2–8.0), and further acidity was adjusted with concentrated HCl or 1 M NaOH. The absorption and fluorescence spectra of the resultant solutions were then collected.
Section S5. pH-dependent Properties of the Halogenated Fluoresceins.
S5.1 pH titration of halogenated fluorescein
Fluorescein derivatives (Supplementary Table 1) were dissolved in DMSO to obtain 1 mM stock solutions and then diluted with citric acid-Na2HPO4 buffer (100 mM) to 10
μM. The pH of the solutions were adjusted through varying the ratios of citric acid and Na2HPO4 (pH 2.2-8.0), and further acidity was adjusted with concentrated HCl or 1 M
NaOH. The absorption and fluorescence spectra of the resultant solutions were then

[4] = Photophysical characterization (absorption, fluorescence, phosphorescence, lifetime); type: physicochemical; details: for ΦFL: 5 μM in 0.5% (v/v) DMSO, diluted with 0.1 M NaOH; for λAbs / λPh / λem: 2% DMSO; for τfl: fluorescence lifetime, 5 μM in 0.5% DMSO, 0.1 M NaOH
Experimental: Section S6. Photophysical Characterizations
S6.1 Absorption, fluorescence, and phosphorescence spectra
Fluorescein and its derivatives were dissolved in DMSO to obtain 1 mM stock solutions.
The stock solutions were diluted with deionized water to 10 μM.
Supplementary Figure 20. The absorption (black), fluorescence (blue), and phosphorescence (red, slit 25 nm) spectra of FL.
Supplementary Figure 21. The absorption (black), fluorescence (blue), and phosphorescence (red, slit 25 nm) spectra of DCF.
S6.2 Fluorescence lifetime
Fluorescence decay samples was recorded with Fluorolog-3 (Horiba). The solution of samples were prepared to be 5 μM in 0.5% (v/v) DMSO, and diluted with 0.1M NaOH.
S6.5 Photophysical properties of the halogenated-fluorescein derivatives
Supplementary Table 4. Photophysical Properties of Halogenated-fluorescein derivatives. […]
a Measured in 2% DMSO; b Measured in 2% DMSO citric acid -disodium hydrogen phosphate buffer; c Measured in a mixed solvent of D 2O and CH3CN (VD2O:
VCH3CN = 1: 15); d The solution of samples were prepared to be 5 μM in 0.5% (v/v) DMSO, and diluted with 0.1 M NaOH.

MRSA = details: dose 100 mg/L, 360 J/cm2; cited from earlier work
[5] = parameters: method as in PMID 10546544; details: Rose Bengal as the standard; cited from earlier work
L. plantarum = test: Photodynamic inhibition of L. plantarum (coating plate method); type: cell-based, Lactobacillus plantarum; details: 0.5 μM photosensitizer, irradiated 10 min, pH 2.5; 620 nm red LED for Zn-tpp and PC
E.coli = details: dose 0.5 μM, 20 min; cited from earlier work
[6] = 2% DMSO citric acid-disodium hydrogen phosphate buffer (Supplementary Table 4)
[7] = pH value when the open form reduces to half of the maximum, pH titration, 10 μM, citric acid–Na2HPO4 buffer

Row | Compound | wound infection of tomatoes, with light (C. albicans) | H&E staining of tongue sections, with light [1] | Singlet oxygen yield (ΦΔ) [2] | singlet oxygen quantum yield (ΦΔ) [2] | pH0.5 [3, 6] | pH0.5 [3, 7] | kdec [4] [s⁻¹] | knr [4] [s⁻¹] | krad [4] [s⁻¹] | ΦFL [4] | λAbs [4] [nm] | λPh [4] [nm] | λem [4] [nm] | τfl [4] [ns] | Inhibition ratio (MRSA) [log10] | singlet oxygen quantum yield (ΦΔ) of the standard [5] | lowering of pH0.5 compared with fluorescein [3] [units] | antimicrobial activity (survival rate of L. plantarum) (L. plantarum) | Inhibition ratio (E.coli) [log10]
1 | C=Cc1c(C)c2cc3nc(c(CC(=O)O)c4[nH]c(cc5nc(cc1[nH]2)C(C)=C5CC)c(C)c4C(=O)O)[C@@H](CCC(=O)O)[C@@H]3C [Ce 6, reference compound] | different magnitudes of wound infection | large amounts of inflammation infiltration | – | – | – | – | – | – | – | – | – | – | – | – | – | – | – | – | –
2 | O=C(O)c1ccccc1-c1c2ccc(=O)c(Br)c-2oc2c(Br)c(O)ccc12 [DBF, Dibromo-fluorescein] | – | – | 0.26 | 0.19 | 4.63 | 4.63 and 4.52 | 5.03e+08 | 3.5e+08 | 1.52e+08 | 0.303 | 504 | 685 | 531 | 1.99 | – | – | – | – | –
3 | O=C(O)c1ccccc1-c1c2ccc(=O)c(I)c-2oc2c(I)c(O)ccc12 [DIF, Diiodo-fluorescein] | – | – | – | 0.63 | 4.13 | 4.13 | 1e+11 | 9.99e+10 | 1e+08 | 0.001 | 527 | 699 | 549 | 0.01 | – | – | – | – | –
4 | CN(C)c1ccc2nc3ccc(=[N+](C)C)cc-3sc2c1 [Methylene Blue] | – | – | – | – | – | – | – | – | – | – | – | – | – | – | 4.7 | – | – | – | –
5 | O=C(O)c1c(Cl)c(Cl)c(Cl)c(Cl)c1-c1c2cc(Cl)c(=O)c(Cl)c-2oc2c(Cl)c(O)c(Cl)cc12 [OCF, Octachloro-fluorescein] | – | – | 0.11 | 0.11 | 3.41 | 3.41 | 2.31e+08 | 9.3e+07 | 1.38e+08 | 0.597 | 537 | 676 | 556 | 4.33 | – | – | – | – | –
6 | O=C(O)c1c(Cl)c(Cl)c(Cl)c(Cl)c1-c1c2cc(Br)c(=O)c(Br)c-2oc2c(Br)c(O)c(Br)cc12 [PB, Tetrabromo-tetrachloro-fluorescein] | – | – | – | 0.26 | 3.45 | 3.45 | 8e+08 | 6.64e+08 | 1.36e+08 | 0.170 | 539 | 730 | 560 | 1.25 | – | – | – | – | –
7 | O=C(O)c1c(Cl)c(Cl)c(Cl)c(Cl)c1-c1c2cc(I)c(=O)c(I)c-2oc2c(I)c(O)c(I)cc12 [RB, Tetraiodo-tetrachloro-fluorescein] | – | – | 0.75 | 0.75 | 3.99 | 3.99 | 1e+11 | 9.97e+10 | 3e+08 | 0.003 | 550 | 732 | 570 | 0.01 | – | 0.75 | – | – | –
8 | O=C(O)c1ccccc1-c1c2cc(Cl)c(=O)c(Cl)c-2oc2c(Cl)c(O)c(Cl)cc12 [TCF-1, Tetrachloro-fluorescein-1] | – | – | 0.06 | 0.06 | 2.79 | 2.79 | 2.44e+08 | 7.8e+07 | 1.66e+08 | 0.680 | 515 | 655 | 536 | 4.09 | – | – | 3.30 | – | –
9 | O=C(O)c1c(Cl)c(Cl)c(Cl)c(Cl)c1-c1c2ccc(=O)cc-2oc2cc(O)ccc12 [TCF-2, Tetrachloro-fluorescein-2] | – | – | – | 0.05 | 5.89 | 5.89 and 5.93 | 2.05e+08 | 3e+07 | 1.75e+08 | 0.854 | 511 | 637 | 531 | 4.87 | – | – | 0.16 | – | –
10 | C1=Cc2nc1c(-c1ccccc1)c1ccc([n-]1)c(-c1ccccc1)c1nc(c(-c3ccccc3)c3ccc([n-]3)c2-c2ccccc2)C=C1.[Zn+2] [Zn-tpp, Zinc(II) tetraphenylporphyrin, reference compound] | different magnitudes of wound infection | large amounts of inflammation infiltration | – | – | – | – | – | – | – | – | – | – | – | – | – | – | – | no obvious antimicrobial activity | –
11 | Dichloro-fluorescein [DCF] | – | – | – | 0.04 | 4.77 | 4.77 | 2.31e+08 | 7.7e+07 | 1.54e+08 | 0.668 | 502 | 645 | 529 | 4.33 | – | – | – | – | –
12 | Fluorescein | – | – | – | 0.01 | 6.09 | 6.09 | 2.18e+08 | 3.1e+07 | 1.87e+08 | 0.858 | 491 | 638 | 515 | 4.58 | – | – | – | – | –
13 | [Ru(bpy)2(dppn)]2+ | – | – | – | – | – | – | – | – | – | – | – | – | – | – | – | – | – | – | 5.4
